From paper PMC2375285, “Inhibition of all-TRANS-retinoic acid metabolism by R116010 induces antitumour activity” (British Journal of Cancer, 2002)

Experiments:
CYP2C11 = target: T1, CYP2C11 (Rattus norvegicus, UniProt P08683); test: Testosterone 2α-hydroxylase in rat liver microsomes; type: biochemical; conditions: Rat liver microsomes
T1 construct: hydroxylation of testosterone (CYP2C11, CYP2A1, CYP3A, CYP2B1/2) in rat liver microsomes; from tissue; host or cells: rat liver, microsomes
T1 sequence (P08683 1-500): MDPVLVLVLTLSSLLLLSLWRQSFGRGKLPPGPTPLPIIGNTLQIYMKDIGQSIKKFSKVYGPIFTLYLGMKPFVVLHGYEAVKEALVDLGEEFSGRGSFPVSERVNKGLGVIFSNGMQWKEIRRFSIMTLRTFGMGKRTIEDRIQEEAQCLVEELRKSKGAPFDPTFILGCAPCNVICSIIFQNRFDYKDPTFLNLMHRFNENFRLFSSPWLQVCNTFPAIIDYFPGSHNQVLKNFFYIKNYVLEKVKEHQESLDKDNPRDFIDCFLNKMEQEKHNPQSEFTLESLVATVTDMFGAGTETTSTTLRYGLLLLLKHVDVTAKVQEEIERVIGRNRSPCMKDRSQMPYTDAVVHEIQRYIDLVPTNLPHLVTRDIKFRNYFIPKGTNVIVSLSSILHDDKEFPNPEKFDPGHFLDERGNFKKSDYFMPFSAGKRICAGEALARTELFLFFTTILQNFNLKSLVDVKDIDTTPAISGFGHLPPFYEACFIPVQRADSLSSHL
Description: (§1) The conversion of androstenedione to estrone by aromatase (CYP19) in human placental microsomes, the conversion of 17-hydroxy-20-dihydroprogesterone to testosterone by 17,20-lyase (CYP17) in rat testicular S10 fractions, and the 2α-, 7α-, 6β-, and 16β-hydroxylation of testosterone (CYP2C11, CYP2A1, CYP3A, CYP2B1/2) in rat liver microsomes were carried out as described ([Vanden Bossche et al, 1990]).

TA3-Ha mammary tumours = test: TA3-Ha mammary carcinoma model; conditions: for toxicity findings: at toxic dose: RA 5, R116010 5, liarozole fumarate 20 mg kg^−1; for therapeutic window: maximum tolerated dose versus lowest active dose, TA3-Ha model; for lowest active dose inhibiting TA3-Ha tumour growth: day 1 until day 21, tumour weight
Description: (§2) Cells (1.5×10^6) were injected intraperitoneally in syngeneic A/J mice. […] Each group consisted of 10 animals for experiments with R116010 and of six animals for experiments with RA. All treatments were performed by oral gavage. […] The control groups were given the vehicle 20% 4-OH-β-cyclodextrine in sterile saline. Mice were daily examined for adverse drug effects. At the end of the experiments, subcutaneous tumours were excised 24 h after the last treatment and weighed to validate the antitumoural effects of the treatment.
(§3) Data are represented as box plots showing median group value, 25/75th percentile, 10/90th percentile and outliers. Groups were statistically compared to the vehicle-treated groups using the Mann–Whitney U-test. Significance was defined at the level of P<0.05.

17,20-lyase (CYP17) = target: T2, 17,20-lyase (CYP17) (Rattus norvegicus, UniProt P11715); test: 17,20-lyase in rat testicular S10 fraction; type: biochemical
T2 construct: 17,20-lyase (CYP17) in rat testicular S10 fractions; from tissue; host or cells: rat testis, S10 fraction
T2 sequence (P11715 1-507): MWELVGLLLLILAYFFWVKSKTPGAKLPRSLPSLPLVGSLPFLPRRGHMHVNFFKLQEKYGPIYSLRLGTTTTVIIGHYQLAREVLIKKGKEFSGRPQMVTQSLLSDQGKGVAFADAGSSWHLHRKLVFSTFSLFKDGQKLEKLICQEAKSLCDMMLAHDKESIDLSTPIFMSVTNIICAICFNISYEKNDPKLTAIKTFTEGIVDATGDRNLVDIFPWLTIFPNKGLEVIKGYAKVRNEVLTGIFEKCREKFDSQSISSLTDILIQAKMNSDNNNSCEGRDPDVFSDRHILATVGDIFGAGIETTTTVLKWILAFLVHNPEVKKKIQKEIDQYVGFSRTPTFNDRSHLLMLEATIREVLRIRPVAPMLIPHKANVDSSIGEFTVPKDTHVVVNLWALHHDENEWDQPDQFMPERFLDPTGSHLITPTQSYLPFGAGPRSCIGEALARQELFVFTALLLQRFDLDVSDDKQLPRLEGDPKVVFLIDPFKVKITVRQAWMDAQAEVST
Description: Metabolism of RA by CYP26A1 was measured in microsomes of T47D human breast cancer cells that were pretreated for 16 h with 1 μM RA to induce RA metabolism. Microsomes were prepared exactly as described by [Han and Choi (1996)], and RA metabolism was measured as described by [Van Wauwe et al (1994)]. The conversion of androstenedione to estrone by aromatase (CYP19) in human placental microsomes, the conversion of 17-hydroxy-20-dihydroprogesterone to testosterone by 17,20-lyase (CYP17) in rat testicular S10 fractions, and the 2α-, 7α-, 6β-, and 16β-hydroxylation of testosterone (CYP2C11, CYP2A1, CYP3A, CYP2B1/2) in rat liver microsomes were carried out as described ([Vanden Bossche et al, 1990]).

[1] = system: RA metabolism in intact T47D cells; test: Microcolumn assay for RA metabolism in intact T47D cells; type: cell-based, human; conditions: intact T47D cells pretreated 16 h with 1 μM RA; 0.1 μM [3H]RA, 90 min; read-out: IC50 inhibition of RA metabolism
Description: RA metabolism was quantitatively determined using the microcolumn assay as described previously ([Krekels et al, 1997]). […] Cells were then washed twice with culture medium, harvested and resuspended at 4×10^6 cells ml^−1. An aliquot of this cell suspension (450 μl) was incubated for 90 min in the presence of 0.1 μM [11, 12-^3H(N)]RA, after which 2 ml acetonitrile was added. After centrifugation for 10 min at 780 g, the resulting deproteinized supernatant was acidified with 2.5 ml of 40 mM acetic acid and applied to a 3 ml C18 Bond Elut LRC column (Varian, Harbor City, CA, USA; pretreated with 4 ml distilled water) under a vacuum of 127 mmHg using VAC ELUT SPS-24 and the effluent was collected. The column was eluted with 1 ml 40% acetonitrile and the effluent was collected in the same vial. Radioactivity in the collected effluent, containing the polar metabolites, was determined in a Packard Tri-carb 4530 liquid scintillation analyzer. Optiphase ‘Hi Safe II’ (Wallac, Milton Keynes, UK) was used as a scintillator. Data are presented as mean±s.d. of three or four independent experiments. The IC50-values were calculated by non-linear regression analysis using SigmaPlot 4.01 software.

CYP2A1 = target: T3, CYP2A1 (Rattus norvegicus, UniProt P11711); test: Testosterone 7α-hydroxylase in rat liver microsomes; type: biochemical; conditions: Rat liver microsomes
T3 construct: hydroxylation of testosterone (CYP2C11, CYP2A1, CYP3A, CYP2B1/2) in rat liver microsomes; from tissue; host or cells: rat liver, microsomes
T3 sequence (P11711 1-492): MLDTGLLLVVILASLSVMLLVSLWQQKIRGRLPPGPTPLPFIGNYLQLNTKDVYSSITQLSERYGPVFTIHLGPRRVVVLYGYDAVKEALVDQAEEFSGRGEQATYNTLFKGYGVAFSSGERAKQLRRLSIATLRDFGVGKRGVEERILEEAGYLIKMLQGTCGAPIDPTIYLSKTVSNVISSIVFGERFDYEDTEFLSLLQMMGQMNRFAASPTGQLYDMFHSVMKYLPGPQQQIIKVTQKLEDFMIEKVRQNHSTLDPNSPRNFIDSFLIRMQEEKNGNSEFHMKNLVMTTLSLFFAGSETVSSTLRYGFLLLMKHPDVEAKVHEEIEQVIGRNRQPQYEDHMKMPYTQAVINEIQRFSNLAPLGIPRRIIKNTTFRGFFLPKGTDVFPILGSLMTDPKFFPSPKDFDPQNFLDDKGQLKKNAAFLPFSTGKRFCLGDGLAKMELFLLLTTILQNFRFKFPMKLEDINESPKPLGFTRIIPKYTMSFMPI
Description: as §1

CYP3A = conditions: microsomes
Description: as §1

T47D cells = test: T47D cell proliferation (MTT assay, 7 days); type: cell-based, human
Description: T47D cells were seeded in Falcon® 96-well cell culture plates (Life Technologies, Merelbeke, Belgium) at 2500 cells per well in a total volume of 150 μl. Cells were allowed to adhere to plastic for 24 h. Drugs and/or medium were added to a final volume of 200 μl (day 0). Cells were grown under these conditions for 7 days, with renewal of medium and drugs on days 2 and 5. On day 7, medium was renewed and 25 μl MTT-solution was added, and cells were further incubated for 2 h in a cell incubator. The medium was aspirated and 25 μl Sorensen glycine buffer (0.1 M glycine, 0.1 M NaCl; pH 10.5) was added together with 100 μl DMSO to solubilize the blue MTT-formazan product. […] Data are presented as mean±s.d. of three or four independent experiments. Within an experiment, the result of each experimental condition is the mean of six replicate wells. The IC50-values were calculated by non-linear regression analysis using SigmaPlot 4.01 software.

CYP2B1/2 = test: Testosterone 16β-hydroxylase in rat liver microsomes; type: biochemical; conditions: Rat liver microsomes
Description: as §1

in vivo = conditions: mouse, po
Description: as §2, §3

| Structure (SMILES) | IC50 (CYP2C11) | toxicity findings (TA3-Ha mammary tumours) | therapeutic window (TA3-Ha mammary tumours) | lowest active dose inhibiting TA3-Ha tumour growth (TA3-Ha mammary tumours; oral, twice daily) | IC50 (17,20-lyase (CYP17)) | IC50 [1] | IC50 (CYP2A1) | IC50 (CYP3A) | decrease of T47D cell proliferation by itself (T47D cells; 10 μM, compound alone) | enhancement of the antiproliferative activity of RA (T47D cells; liarozole-fumarate tested up to 10 μM, T47D cells) | IC50 (CYP2B1/2) | loss of body weight (TA3-Ha mammary tumours; RA 5 mg kg^−1, mice) | dose at which toxicity was observed (TA3-Ha mammary tumours; mice, oral, twice daily, toxicity related to hypervitaminosis A) | IC50 (T47D cells; Homo sapiens, T47D, 168 h, read-out: IC50 T47D cell proliferation) | MTD (in vivo) |
| --- | --- | --- | --- | --- | --- | --- | --- | --- | --- | --- | --- | --- | --- | --- | --- |
| Clc1cccc(C(c2ccc3[nH]cnc3c2)n2ccnc2)c1.Clc1cccc(C(c2ccc3[nH]cnc3c2)n2ccnc2)c1.O=C(O)/C=C/C(=O)O.O=C(O)/C=C/C(=O)O.O=C(O)/C=C/C(=O)O (racemic) [liarozole-fumarate, ±-5-[(3-chlorophenyl)(1H-imidazole-1-yl)methyl]-1H-benzimidazole (E)-2-butenedioate (2:3), reference compound] | 2.9 µM | hair loss and bone fractures | no therapeutic window | 10 mg/kg | 0.11 µM | 1.4 µM | > 10 µM | 0.4 µM | approximately 25% | unable to enhance | 0.5 µM |  |  |  |  |
| CC1=C(/C=C/C(C)=C/C=C/C(C)=C/C(=O)O)C(C)(C)CCC1 [RA, All-trans-retinoic acid] |  | hair loss, and impaired movement due to bone fractures | does not show a real therapeutic window | 2.5 mg/kg |  |  |  |  |  |  |  | 5% | 5 mg/kg | 0.002 ± 0.0005 µM | 5 mg/kg |
